Measured values published in patent US7141561B2, “Substituted diaryl heterocycles, process for their preparation and their use as medicaments” (Sanofi-Aventis Deutschland GmbH, priority 2002, dated 2006).

System: female NMRI mice
Test: Anorectic effect: cumulative condensed milk consumption of mice
Format: in vivo
Conditions: oral dose 30 mg/kg by gavage
Method: The anorectic effect was tested on female NMRI mice. After withdrawal of food for 17 hours, the test compound was administered by gavage. The animals were housed singly with free access to drinking water and were offered condensed milk 30 minutes after administration of the compound. Condensed milk consumption was determined every half hour for 7 hours, and the general wellbeing of the animals was observed. The measured milk consumption was compared with the vehicle-treated control animals.
Table 1: Anorectic effect measured as the reduction in the cumulative milk consumption of treated compared with control animals.

CN(C)CCOc1ccc(-n2ccn(-c3ccc(Oc4ccccc4)cc3)c2=O)cc1 [Example 1, 1-[4-(2-Dimethylaminoethoxy)phenyl]-3-(4-phenoxyphenyl)-1,3-dihydroimidazol-2-one]
cumulative milk consumption of the treated animals (female NMRI mice after 17 hours food withdrawal, N=5, consumption determined for 7 hours): 5/1.7 ml
Reduction in the cumulative milk consumption as % of the control (female NMRI mice, compared with vehicle-treated control animals): 58%
